The values below come from BindingDB's records for doi:10.1021/jm00391a032 (1987).

This assay has as its target Beta-lactamase/penicillinase (Bacillus sp.). The experiment in a line: Inhibitory activity against Beta-lactamase from Bacillus sp. using penicillin G as substrate.
As to `C[C@]1(Cn2cc(N)nn2)[C@H](C(=O)O)C2C(=O)CC2S1(=O)=O` (some centres not stated), the IC50 (in general, the concentration that gives 50% inhibition) stood at 700 nM.
Next, `COC(=O)c1nnn(C[C@@]2(C)[C@H](C(=O)O)C3C(=O)CC3S2(=O)=O)c1C(=O)OC` (some centres not stated): 300 nM; `CCOC(=O)c1cn(C[C@@]2(C)[C@H](C(=O)O)C3C(=O)CC3S2(=O)=O)nn1` (some centres not stated): 54 nM; `COC(=O)c1cnnn1C[C@@]1(C)[C@H](C(=O)O)C2C(=O)CC2S1(=O)=O` (some centres not stated): 300 nM.
Consider `C[C@]1(Cn2nncc2C(=O)O)[C@H](C(=O)O)C2C(=O)CC2S1(=O)=O` (some centres not stated), for which the IC50 was found to be 1700 nM.
The value for `C[C@]1(Cn2cc([Si](C)(C)C)nn2)[C@H](C(=O)O)C2C(=O)CC2S1(=O)=O` (some centres not stated) was 510 nM; that for `CCOC(=O)c1cnnn1C[C@@]1(C)[C@H](C(=O)O)C2C(=O)CC2S1(=O)=O` (some centres not stated) was 340 nM.
